Results as given in patent US20240026268A1, “MICROFLUIDIC HANGING DROP CULTURE DEVICE FOR CULTURING CELL AGGREGATE” (CELLARTGEN INC., priority 2021, published 2024).

Columns and labels:
[1] = tested on: human iPSC-derived nonalcoholic steatohepatitis organoids; test: Effective drug test on human iPSC-derived nonalcoholic steatohepatitis organoids (HEMKS) in 100-well HD chip: qPCR, immunostaining, BODIPY; assay type: cell-based; settings: oleic acid 500 μM + ezetimibe 50 μM for 2 days
Method: Human iPSC-derived liver organoids (HEMKS) were fabricated in the high-throughput 100-well HD chip. Then, a normal group was cultured in a normal culture medium for 7 days, whereas a nonalcoholic steatohepatitis (NASH) group was normally cultured for 5 days and then further cultured for 2 days in the culture medium mixed with 500 μM oleic acid, a free fatty acid, to induce steatohepatitis. Ezetimibe (Eze), an effective drug for treatment of fatty liver, is a drug candidate group that serves as a cholesterol absorption inhibitor and is conventionally used to treat high blood cholesterol and lipid abnormalities. After 5 days of normal culture, oleic acid (500 μM) and ezetimibe (50 μM) were mixed in the culture medium, followed by additional culture for 2 days to test the drug for steatohepatitis. After a total of 7 days of culture, the degree of fat accumulation was compared and the maker expression and gene expression were compared between groups by immunostaining and quantitative PCR analysis. For more accurate steatohepatitis modeling and drug screening, liver organoids containing immune cells (Kupffer cells) and mesenchymal cells (hepatic stellate cells) constituting a liver tissue microenvironment were fabricated. To this end, human iPSC-derived liver organoids were fabricated at a ratio of iPSC hepatic cells (H): vascular endothelial cells (E): mesenchymal stem cells (M): iPSC-derived Kupffer cells (K): iPSC-derived hepatic stellate cells (S)=10:7:2:2:1 (HEMKS).

[2] = tested on: human iPSC-derived nonalcoholic steatohepatitis organoids; test: ROS quantitative analysis by CM-H2DCFDA staining of NASH organoids in 100-well HD chip; assay type: cell-based; settings: NASH+Eze versus NASH organoid
Method: To check the accumulation of reactive oxygen species (ROS) caused by oxidative stress in Normal, NASH and NASH+Eze human iPSC-derived liver organoids (HEMKS) fabricated in the high-throughput 100-well HD chip by the same culture method as described above, ROS activity and quantitative analysis between the groups was performed by CM-H2DCFDA staining, which is oxidative stress detection assay.
The high-throughput HD chip was designed and fabricated with the same dimensions as a commercially available conventional 384-well plate.

[3] = quantitative PCR, versus NASH group

O=C1[C@H](CC[C@H](O)c2ccc(F)cc2)[C@@H](c2ccc(O)cc2)N1c1ccc(F)cc1 [Eze, Ezetimibe]
expression level of ALB, a hepatic differentiation marker ([1]; immunostaining, versus NASH organoid): recovered to a certain level
fatty acid accumulation (BODIPY fluorescence signal labeling lipid) ([1]; versus NASH organoid): decreased
expression level of PLIN2, a fatty acid accumulation marker [1, 3]: decreased
expression level of SMA, liver fibrosis marker [1, 3]: decreased
expression level of TNF-α, an inflammation marker [1, 3]: decreased
expression level of VIM, liver fibrosis marker [1, 3]: decreased
oxidative stress caused by ROS ([2]; CM-H2DCFDA staining, imaging): decreased to a certain level or less
fluorescence intensity (ROS oxidative stress) ([2]; on-chip analysis with plate reader): decreased
